Here are results for five molecules from publication PMC3790782, “Optimization and Pharmacological Validation of a Leukocyte Migration Assay in Zebrafish Larvae for the Rapid In Vivo Bioactivity Analysis of Anti-Inflammatory Secondary Metabolites” (PLoS ONE, 2013).

≈ marks a conversion by molar mass, not a printed value. Marks after values point to notes of the source that are not given here.

One data set deals with zebrafish larvae. As to conditions: 4 dpf zebrafish larvae, 8 h post-incubation; not more than 2 of 10 larvae with signs of toxicity. Here is the method:
For the toxicological analysis, ten 4 dpf zebrafish larvae were used per well in 24-well culture plates. Incubation of each set of larvae at 28°C (±0.5) was done with SAIDs, NSAIDs and non-AIDs at concentrations ranging from 0.1 µM to 500 µM, with NPs at concentrations ranging from 1 µM to 500 µM, and with PEs at concentrations ranging from 1 ug/ml to 1 mg/ml. Controls containing only vehicle (1% DMSO) and untreated larvae were processed in parallel. Examination of each set of larvae was done under light microscopy (Carl Zeiss Stemi 2000C) each hour during a period of 8 h, and a final evaluation at 24 h post-incubation. At 8 h post-incubation, signs of toxicity, e.g. pericardial oedema, cardiovascular defects (arrhythmia or decreased circulation), balance defects (loss of normal posture), locomotor defects (decreased touch response), and ultimately death were scored for every drug, NP, and PE to further establish their maximum tolerated concentration (MTC). […] In this context, only non-toxic concentrations (below the MTC) were considered for further leukocyte migration analysis. All the toxicological assays were performed in duplicate using a different batch of zebrafish larvae for each set of experiments.
Toxicological assessment of all the samples analyzed in our study was done prior to the evaluation of their anti-inflammatory properties. The maximum tolerated concentrations (MTCs) were determined at 8 h post-treatment according to toxicological parameters including pericardial oedema, cardiovascular defects (arrhythmia or decreased circulation), balance defects (loss of normal posture), locomotor defects (decreased touch response), and death. […] Vehicle-treated (1% DMSO) and untreated larvae were processed in parallel to minimize experimental variability in this toxicological evaluation.

Data set [1] has as its system NO, PGE2, COX-2, RAW 264.7. Details: method as in PMID 21771629, PMID 21870032. As to conditions: cited from earlier work.
Data set [2] relates to leukocyte migration in 4 dpf zebrafish larvae. Kind of data set: LPS-enhanced leukocyte migration assay (tail transection, MPO staining, RLM). Details: Anti-inflammatory activity at MTC: concentration or dose not given beside the values. It counts as in vivo, zebrafish (Danio rerio). The note with it: for Leukocyte migration (RLM) / response vs control in vivo at 1 µM / response vs control in vivo at 10 µM / response vs control in vivo at 30 µM / response vs control in vivo at 100 µM / response vs control in vivo at 300 µM / response vs control in vivo at 500 µM: tail cut + 10 µg/ml LPS, relative to 1% DMSO control; for Anti-inflammatory activity at MTC: (1−RLM)x100; for RLM (zebrafish-based assay): at the MTC given in Table 2; for response vs control in vivo at 1 µM / response vs control in vivo at 10 µM / response vs control in vivo at 30 µM / response vs control in vivo at 100 µM / response vs control in vivo at 300 µM / response vs control in vivo at 500 µM: Danio rerio, Leukocyte, 8 h. The procedure: The lipopolysaccharide- (LPS−)enhanced leukocyte migration assay was carried out by triplicate for each sample in 4 dpf zebrafish larvae. The total incubation period of the assay was eight hours. Initially, a pre-incubation step (i.e. prior to tail transection) of one hour at 28°C (±0.5°C) was carried out in 24-well culture plates. Ten larvae per well were incubated in 1 ml of testing mix, consisting of a specific concentration of each sample and the amount of 0.3 X Danieau’s medium necessary to complete 1 ml. Immediately after pre-incubation, complete tail transection in each larva was performed. Zebrafish larvae were first anesthetized by immersion in 0.3 X Danieau’s medium containing 70 µg/ml tricaine (ethyl 3-aminobenzoate, Sigma-Aldrich) and then tail transection near the tip was performed with a sterile scalpel under light microscopy (Carl Zeiss Stemi 2000C). Larvae were then placed in fresh 0.3 X Danieau’s medium without anesthetic for a few minutes until the final incubation period. For the last step, a new testing mix was prepared including 10 µg/ml lipopolysaccharides from Salmonella typhosa ATCC 10749 (LPS, Sigma-Aldrich Chemical) to enhance leukocyte migration to the injured zone. The final incubation step (i.e. subsequent to tail transection) of the injured larvae in contact with the pro-inflammatory agent and with the specific concentration of each SAID, NSAID, non-AID, NP, and PE at 28°C (±0.5°C) was done for 7 h. Within this period, sporadic evaluations of the larvae were done to examine their viability during the time of the assay. Larvae that completed the incubation time were fixed overnight in 4% formaldehyde (Sigma-Aldrich) at 4°C. Controls containing only the vehicle (1% DMSO) were processed in parallel.
Fixed larvae were gently washed twice with 1 X PBST (PBS-1X phosphate buffered saline, Gibco +0.1% Tween 20) for 5–10 min and then incubated at room temperature in 1 ml of freshly prepared Leucognost® Pox (Merck) staining solution, made according the directions of the provider. Observation of stained black-brown cells (leukocytes) in the larvae was possible within 15 min of incubation. Evaluation of the migrating leukocytes, particularly surrounding the injured region, in each larva was done under light microscopy (Carl Zeiss Stemi 2000C) and scoring was done using a migration scale established to semi-quantify the amount of migrating leukocytes on one side of each larva.
The average of the value achieved for each of the ten larvae tested in triplicate for one sample is expressed as relative leukocyte migration (RLM) according to the formula: RLM = leukocyte migration of the larva/average leukocyte migration of the negative control.
To determine the extent of leukocyte migration generated after exposing 4 dpf zebrafish larvae to mechanical and biological stimuli – namely tail transection and LPS exposure – we used a commercially available whole-mount cytochemical staining method (Leucognost® Pox, Merck) to detect MPO activity in situ. To minimize the number of handling steps post-staining, this method was chosen over the alternative myeloperoxidase stain Sudan Black B [26], [27], which also stains phospholipids, neural fats and sterols. In our experiments, we visualized migrating leukocytes in 4 dpf larvae at 8 h post-injury. Microscopic evaluations of MPO-stained larvae allowed us to score the degree of leukocyte migration at the trauma site according to a comparative scale that we established particularly for this purpose (Figure 2). Myeloperoxidase-positive cells, appearing as black-brown dots, were counted in a segment at the edge of the tail on one side of every larva (Figure 2). The number of leukocytes was then graded according to the comparative scale and subsequently converted into a relative value expressed as the relative leukocyte migration (RLM) activity for the total number or larvae for one sample.

For another data set, the system named is IL-4, RBL-2H3. Also noted: method as in PMID 19378317, PMID 17982104, PMID 21443976. The note with it: cited from earlier work.
The test system of the next data set is TNF-α, RBL-2H3. Details: method as in PMID 19378317, PMID 17982104, PMID 21443976. As to conditions: cited from earlier work.
Another data set deals with IL-1β, human monocytes. Details: method as in PMID 19378317, PMID 17982104, PMID 21443976. The note with it: cited from earlier work.
Another data set concerns NO, RAW 264.7. Details: method as in PMID 15621702, PMID 19678956, PMID 19885845. The note with it: cited from earlier work.
In the next data set the test system is TNF-α, RAW 264.7. The note with it: cited from earlier work.
Data set [3] relates to COX, rat peritoneal leukocytes. Also noted: method as in PMID 19378317, PMID 16220571, PMID 21443976. As to conditions: cited from earlier work.
For the next data set, the system named is TNF-α, iNOS, macrophages. Details: method as in PMID 19378317, PMID 15668926. As to conditions: cited from earlier work.
The next data set relates to PGE2, rat macrophages. The note with it: cited from earlier work.

For the molecule `CC(C)=CCC[C@](C)(O)[C@@H]1CC=C(C)CC1` [(−)-α-bisabolol], the “Maximum tolerated concentration (MTC)” value with zebrafish larvae came to 30 µM. Moreover, the half-inhibitory concentration (IC50) in data set [1] is 100 µM. Besides, in [2] (1 µM), the “Leukocyte migration (RLM)” value is 0.53 ^*. Besides, in [2] (30 µM), the “Leukocyte migration (RLM)” value amounted to 0.48. In addition, in data set [2], the “Anti-inflammatory activity at MTC” value is 52% and the “RLM (zebrafish-based assay)” value is 0.48.

For `O=c1cc(-c2ccc(O)cc2)oc2cc(O)cc(O)c12` [Apigenin, apigenin], in the data set on IL-4, RBL-2H3, the half-inhibitory concentration (IC50) was 3.6 µM. Besides, in the data set with zebrafish larvae, the “Maximum tolerated concentration (MTC)” value turned out to be 500 µM. In [2] (500 µM), the “Leukocyte migration (RLM)” value is 0.35 ^*** and the response vs control in vivo at 500 µM came out at 35%. In addition, the response vs control in vivo at 1 µM in [2] (1 µM) came to 74%. In data set [2], the response vs control in vivo at 10 µM is 53%, the response vs control in vivo at 100 µM stood at 37%, the response vs control in vivo at 300 µM was determined as 37% and the “Anti-inflammatory activity at MTC” value stood at 65%. Further, the “RLM (zebrafish-based assay)” value in [2] was 0.35. Further, the response vs control in vivo at 30 µM in data set [2] (30 µM) was found to be 54%. Moreover, the “Anti-inflammatory activity at MTC” value in [2] (listed as apigenin) was 65%. The IC50 with TNF-α, RBL-2H3 was 5.3 µM. Besides, the IC50 in the data set with IL-1β, human monocytes was 10 µM.

Consider `O=C(O)/C=C/c1ccc(O)c(O)c1` [Caffeic acid, caffeic acid], for which the “Maximum tolerated concentration (MTC)” value in the data set with zebrafish larvae came to 500 µM. Also, in data set [2] (500 µM), the “Leukocyte migration (RLM)” value is on record as 0.14 ^** and the response vs control in vivo at 500 µM turned out to be 14%. Also, the response vs control in vivo at 1 µM in data set [2] (1 µM) came out at 80%. Besides, in data set [2], the response vs control in vivo at 10 µM was determined as 71%, the response vs control in vivo at 100 µM was found to be 59%, the response vs control in vivo at 300 µM was determined as 34% and the “Anti-inflammatory activity at MTC” value stood at 86%. The “RLM (zebrafish-based assay)” value in [2] was 0.14. The response vs control in vivo at 30 µM in [2] (30 µM) came out at 59%. In the data set with NO, RAW 264.7, the concentration for half-maximal inhibition (IC50) is 4.8 µM.

On to `O=c1cc(-c2ccc(O)c(O)c2)oc2cc(O)cc(O)c12` [Luteolin, luteolin], for which, in the data set on zebrafish larvae, the “Maximum tolerated concentration (MTC)” value is 500 µM. Moreover, the IC50 in the data set on TNF-α, RAW 264.7 is below 1 µM. The response vs control in vivo at 1 µM in data set [2] (1 µM) amounted to 63%. In addition, in [2], the response vs control in vivo at 10 µM stood at 61%, the response vs control in vivo at 100 µM came out at 48%, the response vs control in vivo at 300 µM is 44% and the “Anti-inflammatory activity at MTC” value is 59%. Also, in [2], the “RLM (zebrafish-based assay)” value was found to be 0.41. For the same molecule, the response vs control in vivo at 30 µM in data set [2] (30 µM) was 55%. Moreover, in [2] (500 µM), the response vs control in vivo at 500 µM came to 41%. Also, in data set [3], the half-inhibitory concentration (IC50) was 100 µg/mL (≈ 349 µM).

Regarding `O=c1c(O)c(-c2ccc(O)c(O)c2)oc2cc(O)cc(O)c12` [Quercetin, quercetin], in the data set with zebrafish larvae, the “Maximum tolerated concentration (MTC)” value amounted to 500 µM. Also, in the data set on TNF-α, RAW 264.7, the IC50 is 1 µM. The IC50 in the data set on TNF-α, iNOS, macrophages was 50 µM. Besides, in [2] (500 µM), the “Leukocyte migration (RLM)” value is 0.31 ^* and the response vs control in vivo at 500 µM amounted to 31%. For the same molecule, in [2] (1 µM), the response vs control in vivo at 1 µM was found to be 65%. In [2], the response vs control in vivo at 10 µM was found to be 55%, the response vs control in vivo at 100 µM was 42%, the response vs control in vivo at 300 µM is 40% and the “Anti-inflammatory activity at MTC” value is 69%. Also, the “RLM (zebrafish-based assay)” value in data set [2] was determined as 0.31. In addition, the response vs control in vivo at 30 µM in data set [2] (30 µM) stood at 35%. Moreover, in [2] (listed as quercetin), the “Anti-inflammatory activity at MTC” value is 69%. Moreover, the IC50 in the data set on PGE2, rat macrophages was 13.9 µM.
